{
  "source": "patent US20060069132A1",
  "about": "“Azolecarboxamide herbicides” (priority 2004, published 2006)",
  "key": {"ducksalad [1]": {"test_system": "ducksalad", "assay": "Test B flooded paddy test", "format": "in vivo, Heteranthera limosa", "conditions": "1000 g ai/ha, scale 0 to 100 (0 no effect, 100 complete control)", "in_short": "(§1)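 Visual ratings, 0 (no effect) to 100 (complete control), made versus controls after 13–15 d greenhouse. Paddy plants treated at 2-leaf stage; postemergence plants at 1- to 4-leaf stage, 2–18 cm tall.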"}, "barnyardgrass [2]": {"test_system": "barnyardgrass", "assay": "Test B flooded paddy test", "format": "in vivo, Echinochloa crus-galli", "conditions": "1000 g ai/ha, scale 0 to 100 (0 no effect, 100 complete control)", "in_short": "as §1"}, "[3]": {"test_system": "smallflower umbrella sedge", "assay": "Test C flooded paddy test", "format": "in vivo, Cyperus difformis"}, "morningglory": {"test_system": "morningglory", "assay": "Test B pre-/postemergence herbicide test", "format": "in vivo, Ipomoea coccinea", "conditions": "for Morningglory plant response rating: scale 0 (no effect) to 100 (complete control)", "in_short": "(§2)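 Visual rating, 0 (no effect) to 100 (complete control), versus untreated controls after 13–15 d in greenhouse. Pre- and postemergence applications (postemergence plants 2–18 cm, 1–4 leaves); flooded paddy arm at 2-leaf stage. Compounds in non-phytotoxic solvent plus surfactant.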"}, "cocklebur": {"test_system": "cocklebur", "assay": "Test B pre-/postemergence herbicide test", "format": "in vivo, Xanthium strumarium", "conditions": "for Cocklebur plant response rating: scale 0 (no effect) to 100 (complete control)", "in_short": "as §2"}, "Surinam grass": {"test_system": "Surinam grass", "assay": "Test B pre-/postemergence herbicide test", "format": "in vivo, Urochloa decumbens", "conditions": "for Surinam Grass plant response rating: scale 0 (no effect) to 100 (complete control)", "in_short": "(§3)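 Flooded paddy rice and barnyardgrass were treated at the 2-leaf stage; upland plantings received compound either on sown seed or on 1- to 4-leaf seedlings. All were kept 13–15 days in a greenhouse and scored visually, 0–100, relative to untreated plants.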"}, "corn": {"test_system": "corn", "assay": "Test B pre-/postemergence herbicide test", "format": "in vivo, Zea mays", "conditions": "for Corn plant response rating: scale 0 (no effect) to 100 (complete control)", "in_short": "as §3"}, "giant foxtail": {"test_system": "giant foxtail", "assay": "Test B pre-/postemergence herbicide test", "format": "in vivo, Setaria faberi", "conditions": "for Foxtail, Giant plant response rating: scale 0 (no effect) to 100 (complete control)", "in_short": "as §3"}, "large crabgrass": {"test_system": "large crabgrass", "assay": "Test B pre-/postemergence herbicide test", "format": "in vivo, Digitaria sanguinalis", "conditions": "for Crabgrass, Large plant response rating: scale 0 (no effect) to 100 (complete control)", "in_short": "as §3"}, "blackgrass": {"test_system": "blackgrass", "assay": "Test B postemergence herbicide test", "format": "in vivo, Alopecurus myosuroides", "conditions": "scale 0 (no effect) to 100 (complete control)", "in_short": "as §1"}, "barnyardgrass [4]": {"test_system": "barnyardgrass", "assay": "Test C flooded paddy test", "format": "in vivo, Echinochloa crus-galli", "in_short": "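After a postemergence application at 1 to 4 leaves (plants 2–18 cm high), or at 2 leaves for barnyardgrass in flooded paddy, plants stayed in the greenhouse for 12 to 14 days. Damage was then judged visually relative to control plants, with 100 indicating complete control.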"}, "ducksalad [5]": {"test_system": "ducksalad", "assay": "Test C flooded paddy test", "format": "in vivo, Heteranthera limosa"}, "rice [6]": {"test_system": "rice", "assay": "Test C flooded paddy test", "format": "in vivo, Oryza sativa", "in_short": "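Postemergence sprays applied to plants 2 to 18 cm tall (1- to 4-leaf stage); paddy species grown to 2-leaf stage under flooding. After 12 to 14 days in greenhouse, visual rating versus untreated controls on 0–100 scale (0 no effect, 100 complete control).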"}, "velvetleaf": {"test_system": "velvetleaf", "assay": "Test B pre-/postemergence herbicide test", "format": "in vivo, Abutilon theophrasti", "conditions": "for Velvetleaf plant response rating: scale 0 (no effect) to 100 (complete control)", "in_short": "as §3"}, "wheat": {"test_system": "wheat", "assay": "Test B postemergence herbicide test", "format": "in vivo, Triticum aestivum", "design": "key to Wheat plant response rating: 0 = no effect, 100 = complete control", "in_short": "(§4)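 Treated at 2-leaf (paddy) or 1–4-leaf, 2–18 cm (postemergence); greenhouse 13–15 d; visual score vs control, 0 none to 100 complete control; dash = not tested.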"}, "[7]": {"test_system": "small flower umbrella sedge", "assay": "Test B flooded paddy test", "format": "in vivo, Cyperus difformis", "conditions": "1000 g ai/ha, scale 0 to 100 (0 no effect, 100 complete control)", "in_short": "as §1"}, "rice [8]": {"test_system": "rice", "assay": "Test B flooded paddy test", "format": "in vivo, Oryza sativa", "conditions": "1000 g ai/ha, scale 0 to 100 (0 no effect, 100 complete control)", "in_short": "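After treating 2-leaf paddy plants or 2–18 cm postemergence plants (1 to 4 leaves) with formulated chemical, researchers kept them in a greenhouse for 13–15 days. Effects were judged visually versus controls: 0 indicates none, 100 total control.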"}, "wild oat": {"test_system": "wild oat", "assay": "Test B postemergence herbicide test", "format": "in vivo, Avena fatua", "conditions": "scale 0 (no effect) to 100 (complete control)", "in_short": "as §4"}, "pigweed": {"test_system": "pigweed", "assay": "Test B pre-/postemergence herbicide test", "format": "in vivo, Amaranthus retroflexus", "conditions": "for Pigweed plant response rating: scale 0 (no effect) to 100 (complete control)", "in_short": "as §3"}, "barnyardgrass [9]": {"test_system": "barnyardgrass", "assay": "Test B pre-/postemergence herbicide test", "format": "in vivo, Echinochloa crus-galli", "conditions": "for Barnyardgrass plant response rating: scale 0 (no effect) to 100 (complete control)", "in_short": "as §2"}, "lambsquarters": {"test_system": "lambsquarters", "assay": "Test B pre-/postemergence herbicide test", "format": "in vivo, Chenopodium album", "conditions": "for Lambsquarters plant response rating: scale 0 (no effect) to 100 (complete control)", "in_short": "as §3"}, "[10]": {"conditions": "125 g ai/ha, scale 0 to 100 (0 no effect, 100 complete control)"}, "[11]": {"conditions": "250 g ai/ha, scale of 0 to 100, 0 is no effect, 100 is complete control"}, "[12]": {"conditions": "500 g ai/ha, visual rating after 12 to 14 days, scale 0 to 100 (0 no effect, 100 complete control)"}, "[13]": {"conditions": "125 g ai/ha, 0 is no effect, 100 is complete control, preemergence"}, "[14]": {"conditions": "125 g ai/ha, visual rating, postemergence"}},
  "data": [
    {"smiles": "Cc1nn(C(C)C)nc1C(=O)Nc1cccc(C(=O)N(C)C)c1", "note": "[Compound 404]", "values": [
      {"measurement": "Ducksalad plant response rating", "setting": "ducksalad [1]", "value": 90},
      {"measurement": "Barnyardgrass plant response rating", "setting": "barnyardgrass [2]", "value": 90},
      {"measurement": "Sedge, Umbrella plant response rating", "setting": "[3]; 62 g ai/ha, scale 0 to 100", "value": 70},
      {"measurement": "Sedge, Umbrella plant response rating", "setting": "[3]; [10]", "value": 75},
      {"measurement": "Sedge, Umbrella plant response rating", "setting": "[3]; [11]", "value": 80},
      {"measurement": "Plant response rating, Sedge, Umbrella", "setting": "[3]; [12]", "value": 85},
      {"measurement": "Plant response rating (0 to 100 scale), Morningglory", "setting": "morningglory; [13]", "value": 60},
      {"measurement": "Morningglory plant response rating", "setting": "morningglory; [14]", "value": 20},
      {"measurement": "Morningglory plant response rating", "setting": "morningglory; Postemergence, 500 g ai/ha", "value": 70},
      {"measurement": "Plant response rating (0 to 100 scale), Cocklebur", "setting": "cocklebur; [13]", "value": 40},
      {"measurement": "Cocklebur plant response rating", "setting": "cocklebur; [14]", "value": 10},
      {"measurement": "Cocklebur plant response rating", "setting": "cocklebur; Postemergence, 500 g ai/ha", "value": 30},
      {"measurement": "Plant response rating (0 to 100 scale), Surinam Grass", "setting": "Surinam grass; [13]", "value": 40},
      {"measurement": "Surinam Grass plant response rating", "setting": "Surinam grass; [14]", "value": 0},
      {"measurement": "Surinam Grass plant response rating", "setting": "Surinam grass; Postemergence, 500 g ai/ha", "value": 10},
      {"measurement": "Plant response rating (0 to 100 scale), Corn", "setting": "corn; [13]", "value": 0},
      {"measurement": "Corn plant response rating", "setting": "corn; [14]", "value": 0},
      {"measurement": "Corn plant response rating", "setting": "corn; Postemergence, 500 g ai/ha", "value": 10},
      {"measurement": "Plant response rating (0 to 100 scale), Foxtail, Giant", "setting": "giant foxtail; [13]", "value": 30},
      {"measurement": "Foxtail, Giant plant response rating", "setting": "giant foxtail; [14]", "value": 10},
      {"measurement": "Foxtail, Giant plant response rating", "setting": "giant foxtail; Postemergence, 500 g ai/ha", "value": 40},
      {"measurement": "Plant response rating (0 to 100 scale), Crabgrass, Large", "setting": "large crabgrass; [13]", "value": 70},
      {"measurement": "Crabgrass, Large plant response rating", "setting": "large crabgrass; [14]", "value": 0},
      {"measurement": "Crabgrass, Large plant response rating", "setting": "large crabgrass; Postemergence, 500 g ai/ha", "value": 10},
      {"measurement": "Blackgrass plant response rating", "setting": "blackgrass; [14]", "value": 10},
      {"measurement": "Blackgrass plant response rating", "setting": "blackgrass; Postemergence, 500 g ai/ha", "value": 30},
      {"measurement": "Barnyardgrass plant response rating", "setting": "barnyardgrass [4]; 62 g ai/ha, scale 0 to 100 (0 no effect, 100 complete control)", "value": 0},
      {"measurement": "Barnyardgrass plant response rating", "setting": "barnyardgrass [4]; [10]", "value": 0},
      {"measurement": "Barnyardgrass plant response rating", "setting": "barnyardgrass [4]; [11]", "value": 20},
      {"measurement": "Plant response rating, Barnyardgrass", "setting": "barnyardgrass [4]; [12]", "value": 30},
      {"measurement": "Ducksalad plant response rating", "setting": "ducksalad [5]; 62 g ai/ha, scale 0 to 100", "value": 10},
      {"measurement": "Ducksalad plant response rating", "setting": "ducksalad [5]; [10]", "value": 10},
      {"measurement": "Ducksalad plant response rating", "setting": "ducksalad [5]; [11]", "value": 20},
      {"measurement": "Plant response rating, Ducksalad", "setting": "ducksalad [5]; [12]", "value": 30},
      {"measurement": "Rice plant response rating", "setting": "rice [6]; 62 g ai/ha, scale 0 to 100", "value": 0},
      {"measurement": "Rice plant response rating", "setting": "rice [6]; [10]", "value": 0},
      {"measurement": "Rice plant response rating", "setting": "rice [6]; [11]", "value": 45},
      {"measurement": "Plant response rating, Rice", "setting": "rice [6]; [12]", "value": 50},
      {"measurement": "Plant response rating (0 to 100 scale), Velvetleaf", "setting": "velvetleaf; [13]", "value": 20},
      {"measurement": "Velvetleaf plant response rating", "setting": "velvetleaf; [14]", "value": 30},
      {"measurement": "Velvetleaf plant response rating", "setting": "velvetleaf; Postemergence, 500 g ai/ha", "value": 30},
      {"measurement": "Wheat plant response rating", "setting": "wheat; 125 g ai/ha, visual rating, scale 0 (no effect) to 100 (complete control), postemergence", "value": 0},
      {"measurement": "Wheat plant response rating", "setting": "wheat; 500 g ai/ha, scale 0 to 100, 0 no effect, 100 complete control, preemergence", "value": 100},
      {"measurement": "Wheat plant response rating", "setting": "wheat; Postemergence, 500 g ai/ha, scale 0 (no effect) to 100 (complete control)", "value": 0},
      {"measurement": "Sedge, Umbrella plant response rating", "setting": "[7]", "value": 90},
      {"measurement": "Rice plant response rating", "setting": "rice [8]", "value": 60},
      {"measurement": "Oat, Wild plant response rating", "setting": "wild oat; [14]", "value": 0},
      {"measurement": "Oat, Wild plant response rating", "setting": "wild oat; Postemergence, 500 g ai/ha", "value": 10},
      {"measurement": "Plant response rating (0 to 100 scale), Pigweed", "setting": "pigweed; [13]", "value": 70},
      {"measurement": "Pigweed plant response rating", "setting": "pigweed; [14]", "value": 10},
      {"measurement": "Pigweed plant response rating", "setting": "pigweed; Postemergence, 500 g ai/ha", "value": 30},
      {"measurement": "Plant response rating (0 to 100 scale), Barnyardgrass", "setting": "barnyardgrass [9]; [13]", "value": 70},
      {"measurement": "Barnyardgrass plant response rating", "setting": "barnyardgrass [9]; [14]", "value": 10},
      {"measurement": "Barnyardgrass plant response rating", "setting": "barnyardgrass [9]; Postemergence, 500 g ai/ha", "value": 10},
      {"measurement": "Plant response rating (0 to 100 scale), Lambsquarters", "setting": "lambsquarters; [13]", "value": 90},
      {"measurement": "Lambsquarters plant response rating", "setting": "lambsquarters; [14]", "value": 60},
      {"measurement": "Lambsquarters plant response rating", "setting": "lambsquarters; Postemergence, 500 g ai/ha", "value": 80}
    ]}
  ]
}
